“And” between values parts separate entries of the source, which are not always exact repeats. Equal entries are not always repeated. Structures can show the parent of a compound that is named as a salt.
Experiment: In vivo metabolism and excretion of [14C]COMPOUND I in male beagle dogs, single oral 3 mg/kg dose
Design: species or system dog
Settings: for Source: P, plasma, F, feces; for Cumulative Percent Excretion of Radioactivity in Feces (includes cage rinse): mean ± SD (n = 4)
Protocol: Dose preparation, animal dosing, and specimen collection were performed at Wyeth Research, Collegeville, Pa. The vehicle contained 2% (w/v) polysorbate 80, NF and 0.5% (w/v) methylcellulose (4000 cps) in water. [^14C]COMPOUND I trisuccinate salt (50.25 mg) and non-labeled COMPOUND I trisuccinate salt (331.9 mg) were suspended in 72 mL of the vehicle by grinding with a mortar and a pestle. The target [^14C]COMPOUND I concentration was approximately 3 mg/mL as free base and 48 μCi/mL with a target specific activity of 16 μCi/mg. Three pre- and post-dose aliquots (100 μL) were taken for the determination of radiochemical purity, drug and radioactivity concentrations and specific activity (see below).
Four male beagle dogs, weighing from 9.4 to 11.5 kg at the time of dosing, were from an in-house colony. Non-fasted dogs were given a single 3 mg/kg (approximately 48 μCi/kg) dose of [^14C]COMPOUND I at a volume of 1 mL/kg via intragastric gavage. Animals were provided Purina dog chow and water ad libitum, and were housed individually in metabolic cages.
Blood samples were collected from the jugular vein at 1, 4, 8, 24, 48, 72 and 120 hr after dose administration into tubes containing potassium EDTA as the anticoagulant and then placed on ice. Aliquots of 200 μL were removed and plasma was harvested immediately from the remaining blood by centrifugation at 4° C. Urine samples were collected into tubes on dry ice from 0-24 and 24-48 hr, and then at ambient temperature at 24 hr intervals for 7 days post-dose. Fecal samples were collected at 24 hr intervals for 7 days post-dose at room temperature. Cage rinses were collected daily by rinsing each cage with approximately 500 mL of 30% ethanol in water. The dose aliquots and biological specimens were stored at approximately −70° C. until analysis.
Triplicate aliquots of diluted dose (20 μL), dose fractions (10 μL) and plasma (50 μL), urine (200 μL) and cage wash (500 μL) from individual dogs were analyzed for radioactivity content. The samples were assayed in a Tri-Carb Model 3100TR liquid scintillation counter (Perkin Elmer) using 5 mL of Ultima Gold scintillation cocktail.
Fecal samples from individual dogs were weighed and homogenized in water at a volume-to-weight ratio of about 4:1 with a Silverson sealed-unit homogenizer at ambient temperature. Triplicate aliquots of whole blood (50 μL) and fecal homogenates (approximately 0.2 g) were placed into Combusto-cones with Combusto-pads and allowed to dry overnight. Samples were combusted with a model 307 Tri-Carb Sample Oxidizer, equipped with an Oximate-80 Robotic Automatic Sampler (Perkin Elmer). The liberated ^14CO2 was trapped with Carbo-Sorb® E carbon dioxide absorber, mixed with PermaFluor® E+liquid scintillation cocktail, and counted in a Tri-Carb Model 3100 TR/LL liquid scintillation counter.
Plasma samples were pooled by mixing equal volumes from four animals at each time point (1, 4, 8 and 24 hr). Aliquots of 2.0 mL of pooled plasma were mixed with 2.0 mL of acetonitrile, placed on ice for about 10 min, and then centrifuged at 4° C. The supernatant was transferred to a clean tube. The protein pellets were extracted two more times with 2.0 mL of acetonitrile. The supernatants from precipitation and extraction of each sample were pooled, mixed, and evaporated at 22° C. under nitrogen in a TurboVap LV evaporator (Caliper Life Sciences, Hopkinton, Mass.) to about 0.8 mL. The concentrated extract was centrifuged, the supernatant volume measured and the extraction efficiency was determined by analyzing duplicate 10 μL aliquots for radioactivity concentrations. For metabolite profiling, an aliquot of the supernatant (200 μL) was injected onto the HPLC column as described hereinbelow, and fractions were collected at 20 second intervals into 96-well Lumaplates (Perkin Elmer).

[1] = pooled 0-24 hr fecal sample, 3 mg/kg oral
[2] = pooled 24-48 hr fecal sample, 3 mg/kg oral
[3] = 1 hr, 3 mg/kg oral, individual dogs, 3 mg/kg
[4] = 4 hr, 3 mg/kg oral, individual dogs, 3 mg/kg
[5] = 8 hr, 3 mg/kg oral, individual dogs, 3 mg/kg
[6] = 24 hr, 3 mg/kg oral, individual dogs, 3 mg/kg
[7] = 48 hr, 3 mg/kg oral, individual dogs, 3 mg/kg
[8] = 72 hr, 3 mg/kg oral, individual dogs, 3 mg/kg
[9] = 120 hr, 3 mg/kg oral, individual dogs, 3 mg/kg
[10] = 120 hr, 3 mg/kg oral, mean ± SD

SMILES: COc1cc(N2CCN(C3CCN(c4ccc(F)c5cccnc45)CC3)CC2)c2ncccc2c1 [COMPOUND I, 5-Fluoro-8-{4-[4-(6-methoxyquinolin-8-yl)piperazin-1-yl]piperidin-1-yl}quinoline]
- Source (3 mg/kg oral): P, F
- percent of total fecal radioactivity [1]: 1.2%
- percent of total fecal radioactivity [2]: 6.7%
- percent of total plasma radioactivity (pooled plasma, over 24 hr post-dose, 3 mg/kg oral): 71-78%

SMILES: COc1cc(N2CCN(C3CCN(c4ccc(F)c5cccnc45)CC3)CC2)c2ncccc2c1 [[^14C]COMPOUND I, [piperazine-^14C(U)]-5-fluoro-8-(4-(4-(6-methoxyquinolin-8-yl)piperazin-1-yl)piperidin-1-yl)quinoline trisuccinate]
- Recovery of Radioactivity in Cage Rinse (Percent of Dose) (0-24 hr, 3 mg/kg oral, individual dogs, 3 mg/kg): 0.18% and 1.64% and 1.74% and 0.78%
- Recovery of Radioactivity in Cage Rinse (Percent of Dose) (0-24 hr, 3 mg/kg oral, mean ± SD): 1.09 ± 0.74%
- Recovery of Radioactivity in Cage Rinse (Cumulative Percent of Dose) (0-48 hr, 3 mg/kg oral, individual dogs, 3 mg/kg): 0.46% and 2.57% and 2.20% and 1.75%
- Recovery of Radioactivity in Cage Rinse (Cumulative Percent of Dose) (0-48 hr, 3 mg/kg oral, mean ± SD): 1.75 ± 0.92%
- Cumulative Percent Excretion of Radioactivity in Feces (includes cage rinse) (0-48 hr, 3 mg/kg oral, 3 mg/kg): 61.2% and 61.2 ± 14.1%
- Recovery of Radioactivity in Cage Rinse (Cumulative Percent of Dose) (0-72 hr, 3 mg/kg oral, individual dogs, 3 mg/kg): 0.65% and 3.00% and 2.57% and 1.97%
- Recovery of Radioactivity in Cage Rinse (Cumulative Percent of Dose) (0-72 hr, 3 mg/kg oral, mean ± SD): 2.05 ± 1.02%
- Recovery of Radioactivity in Cage Rinse (Cumulative Percent of Dose) (0-96 hr, 3 mg/kg oral, individual dogs, 3 mg/kg): 0.72% and 3.27% and 2.66% and 2.05%
- Recovery of Radioactivity in Cage Rinse (Cumulative Percent of Dose) (0-96 hr, 3 mg/kg oral, mean ± SD): 2.18 ± 1.09%
- Recovery of Radioactivity in Cage Rinse (Cumulative Percent of Dose) (0-120 hr, 3 mg/kg oral, individual dogs, 3 mg/kg): 0.75% and 3.39% and 2.73% and 2.12%
- Recovery of Radioactivity in Cage Rinse (Cumulative Percent of Dose) (0-120 hr, 3 mg/kg oral, mean ± SD): 2.25 ± 1.13%
- Recovery of Radioactivity in Cage Rinse (Cumulative Percent of Dose) (0-144 hr, 3 mg/kg oral, individual dogs, 3 mg/kg): 0.79% and 3.49% and 2.77% and 2.17%
- Recovery of Radioactivity in Cage Rinse (Cumulative Percent of Dose) (0-144 hr, 3 mg/kg oral, mean ± SD): 2.31 ± 1.15%
- Recovery of Radioactivity in Cage Rinse (Cumulative Percent of Dose) (0-168 hr, 3 mg/kg oral, individual dogs, 3 mg/kg): 0.84% and 3.58% and 2.83% and 2.20%
- Recovery of Radioactivity in Cage Rinse (Cumulative Percent of Dose) (0-168 hr, 3 mg/kg oral, mean ± SD): 2.36 ± 1.16%
- Cumulative Percent Excretion of Radioactivity in Feces (includes cage rinse) (0-168 hr, 3 mg/kg oral, 3 mg/kg): 72.8% and 72.8 ± 3.28%
- dose excreted in urine (3 mg/kg oral): less than 7%
- Recovery of Radioactivity in Cage Rinse (Percent of Dose) (24-48 hr, 3 mg/kg oral, individual dogs, 3 mg/kg): 0.28% and 0.93% and 0.46% and 0.97%
- Recovery of Radioactivity in Cage Rinse (Percent of Dose) (24-48 hr, 3 mg/kg oral, mean ± SD): 0.66 ± 0.34%
- Recovery of Radioactivity in Cage Rinse (Percent of Dose) (48-72 hr, 3 mg/kg oral, individual dogs, 3 mg/kg): 0.19% and 0.43% and 0.37% and 0.22%
- Recovery of Radioactivity in Cage Rinse (Percent of Dose) (48-72 hr, 3 mg/kg oral, mean ± SD): 0.30 ± 0.12%
- Recovery of Radioactivity in Cage Rinse (Percent of Dose) (72-96 hr, 3 mg/kg oral, individual dogs, 3 mg/kg): 0.07% and 0.27% and 0.09% and 0.08%
- Recovery of Radioactivity in Cage Rinse (Percent of Dose) (72-96 hr, 3 mg/kg oral, mean ± SD): 0.13 ± 0.10%
- Recovery of Radioactivity in Cage Rinse (Percent of Dose) (96-120 hr, 3 mg/kg oral, individual dogs, 3 mg/kg): 0.03% and 0.12% and 0.07% (2×)
- Recovery of Radioactivity in Cage Rinse (Percent of Dose) (96-120 hr, 3 mg/kg oral, mean ± SD): 0.07 ± 0.04%
- Recovery of Radioactivity in Cage Rinse (Percent of Dose) (120-144 hr, 3 mg/kg oral, individual dogs, 3 mg/kg): 0.04% (2×) and 0.10% and 0.05%
- Recovery of Radioactivity in Cage Rinse (Percent of Dose) (120-144 hr, 3 mg/kg oral, mean ± SD): 0.06 ± 0.03%
- Recovery of Radioactivity in Cage Rinse (Percent of Dose) (144-168 hr, 3 mg/kg oral, individual dogs, 3 mg/kg): 0.05% and 0.09% and 0.06% and 0.03%
- Recovery of Radioactivity in Cage Rinse (Percent of Dose) (144-168 hr, 3 mg/kg oral, mean ± SD): 0.06 ± 0.03%
- Concentration of Total Radioactivity in Plasma [3]: 336 ng equivalents/mL and 426 ng equivalents/mL and 496 ng equivalents/mL and 437 ng equivalents/mL
- Concentration of Total Radioactivity in Whole Blood [3]: 270 ng equivalents/mL and 284 ng equivalents/mL and 404 ng equivalents/mL and 375 ng equivalents/mL
- Concentration of Total Radioactivity in Whole Blood (1 hr, 3 mg/kg oral, mean ± SD): 333 ± 66.3 ng equivalents/mL
- Concentration of Total Radioactivity in Plasma (1 hr, 3 mg/kg oral, mean ± SD, 3 mg/kg): 424±66.1 ng equivalents/mL
- Concentration of Total Radioactivity in Plasma [4]: 166 ng equivalents/mL and 228 ng equivalents/mL and 326 ng equivalents/mL and 181 ng equivalents/mL
- Concentration of Total Radioactivity in Whole Blood [4]: 138 ng equivalents/mL and 201 ng equivalents/mL and 191 ng equivalents/mL and 281 ng equivalents/mL
- Concentration of Total Radioactivity in Plasma (4 hr, 3 mg/kg oral, mean ± SD): 225 ± 72.2 ng equivalents/mL
- Concentration of Total Radioactivity in Whole Blood (4 hr, 3 mg/kg oral, mean ± SD): 203 ± 59.0 ng equivalents/mL
- Concentration of Total Radioactivity in Plasma [5]: 102 ng equivalents/mL and 135 ng equivalents/mL and 171 ng equivalents/mL and 121 ng equivalents/mL
- Concentration of Total Radioactivity in Whole Blood [5]: 93.5 ng equivalents/mL and 131 ng equivalents/mL and 160 ng equivalents/mL and 126 ng equivalents/mL
- Concentration of Total Radioactivity in Plasma (8 hr, 3 mg/kg oral, mean ± SD): 132 ± 29.2 ng equivalents/mL
- Concentration of Total Radioactivity in Whole Blood (8 hr, 3 mg/kg oral, mean ± SD): 128 ± 27.2 ng equivalents/mL
- Concentration of Total Radioactivity in Plasma [6]: 49.1 ng equivalents/mL and 69.3 ng equivalents/mL and 155 ng equivalents/mL and 89.7 ng equivalents/mL
- Concentration of Total Radioactivity in Whole Blood [6]: 41.2 ng equivalents/mL and 63.3 ng equivalents/mL and 98.5 ng equivalents/mL and 82.9 ng equivalents/mL
- Concentration of Total Radioactivity in Whole Blood (24 hr, 3 mg/kg oral, mean ± SD): 71.5 ± 24.8 ng equivalents/mL
- Concentration of Total Radioactivity in Plasma (24 hr, 3 mg/kg oral, mean ± SD, 3 mg/kg): 90.8±45.9 ng equivalents/mL
- Concentration of Total Radioactivity in Plasma [7]: 25.5 ng equivalents/mL and 28.2 ng equivalents/mL and 58.5 ng equivalents/mL and 40.7 ng equivalents/mL
- Concentration of Total Radioactivity in Whole Blood [7]: 22.2 ng equivalents/mL and 30.2 ng equivalents/mL and 40.8 ng equivalents/mL and 42.2 ng equivalents/mL
- Concentration of Total Radioactivity in Plasma (48 hr, 3 mg/kg oral, mean ± SD): 38.2 ± 15.1 ng equivalents/mL
- Concentration of Total Radioactivity in Whole Blood (48 hr, 3 mg/kg oral, mean ± SD): 33.9 ± 9.44 ng equivalents/mL
- Concentration of Total Radioactivity in Plasma [8]: 17.6 ng equivalents/mL and 21.4 ng equivalents/mL and 73.6 ng equivalents/mL and 39.0 ng equivalents/mL
- Concentration of Total Radioactivity in Whole Blood [8]: 16.8 ng equivalents/mL and 22.6 ng equivalents/mL and 25.2 ng equivalents/mL and 31.6 ng equivalents/mL
- Concentration of Total Radioactivity in Plasma (72 hr, 3 mg/kg oral, mean ± SD): 37.9 ± 25.6 ng equivalents/mL
- Concentration of Total Radioactivity in Whole Blood (72 hr, 3 mg/kg oral, mean ± SD): 24.1 ± 6.14 ng equivalents/mL
- Concentration of Total Radioactivity in Plasma [9]: 45.1 ng equivalents/mL (2×) and 46.0 ng equivalents/mL and 46.7 ng equivalents/mL
- Concentration of Total Radioactivity in Whole Blood [9]: 16.6 ng equivalents/mL and 18.4 ng equivalents/mL and 18.0 ng equivalents/mL and 24.0 ng equivalents/mL
- Concentration of Total Radioactivity in Plasma [10]: 45.7 ± 0.78 ng equivalents/mL
- Concentration of Total Radioactivity in Whole Blood [10]: 19.3 ± 3.26 ng equivalents/mL
- administered dose excreted after the completion of the study (estimated from radioactivity in urine collected for several additional weeks): about 5%

SMILES: Oc1cc(N2CCN(C3CCN(c4ccc(F)c5cccnc45)CC3)CC2)c2ncccc2c1 [Metabolite M21, 8-{4-[1-(5-fluoroquinolin-8-yl)piperidin-4-yl]piperazin-1-yl}quinolin-6-ol trihydrochloride]
- Source (3 mg/kg oral): P, F
- percent of total fecal radioactivity [1]: 79.3%
- percent of total fecal radioactivity [2]: 60.9%

Reference: US20080262228A1, “Metabolites of 5-fluoro-8- quinoline and methods of preparation and uses thereof” (Wyeth, priority 2006, published 2008)
